Where a SMILES comes first, the peptide text is derived from it. [ ]: non-standard residue; d: D form. F2Pmp = N[CH](Cc1ccc(C(F)(F)P(=O)(O)O)cc1)C(=O)O
Columns and labels:
TC-PTP = TC-PTP (Homo sapiens (Human), UniProt P17706); experiment: PTP activity assay with pNPP substrate, TC-PTP; assay type: biochemical; conditions: for IC50: 2 mM pNPP, DMG buffer, 25° C., Table 1, read-out: IC50 for TC-PTP
Description: (§1) The PTP activity was assayed using p-nitrophenyl phosphate (pNPP) as a substrate in DMG buffer at 25° C. […] The reaction rate was measure using a SPECTRAMAX microplate spectrophotometer (Molecular Devices). For the determination of Km, the initial velocity and substrate concentration data were fitted to Michaelis-Menten equation using SIGMAPLOT. […] The assays were performed in 96-well plates. […] The reaction rate was measured using a Spectra Max Plus 384 Microplate Spectrophotometer (Molecular Devices). […] The reactions were incubated at room temperature for 30 min and quenched with 5N NaOH. The absorbance at 405 nm was read on the SpectraMax Plus 384 Microplate Spectrophotometer. For the reversibility test, the enzyme was incubated with the inhibitor at room temperature for 30 min before pNPP was added to initiate the reaction. The reaction was then incubated at room temperature for 30 min and quenched and read. […] Data were fitted using SigmaPlot Enzyme Kinetics Module (Systat Software, Inc.)

PTP1B = PTP1B (Homo sapiens (Human), UniProt P18031); experiment: PTP activity assay with pNPP substrate, PTP1B; assay type: biochemical; conditions: 2 mM pNPP, DMG buffer, 25° C.; Table 1
PTP1B, sequence (P18031 whole entry, species assumed): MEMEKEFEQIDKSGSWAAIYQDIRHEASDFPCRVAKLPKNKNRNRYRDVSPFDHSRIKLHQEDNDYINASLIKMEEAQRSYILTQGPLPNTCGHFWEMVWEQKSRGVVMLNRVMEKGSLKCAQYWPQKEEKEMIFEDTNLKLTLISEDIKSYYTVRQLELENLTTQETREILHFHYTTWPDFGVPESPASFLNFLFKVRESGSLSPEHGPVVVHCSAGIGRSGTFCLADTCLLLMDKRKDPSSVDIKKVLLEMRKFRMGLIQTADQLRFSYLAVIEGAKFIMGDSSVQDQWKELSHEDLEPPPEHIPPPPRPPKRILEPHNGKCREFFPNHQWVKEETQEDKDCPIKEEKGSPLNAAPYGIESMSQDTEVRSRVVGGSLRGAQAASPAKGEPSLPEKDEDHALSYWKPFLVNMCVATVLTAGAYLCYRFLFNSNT
Description: as §1

TC-PTP, sequence (P17706 whole entry): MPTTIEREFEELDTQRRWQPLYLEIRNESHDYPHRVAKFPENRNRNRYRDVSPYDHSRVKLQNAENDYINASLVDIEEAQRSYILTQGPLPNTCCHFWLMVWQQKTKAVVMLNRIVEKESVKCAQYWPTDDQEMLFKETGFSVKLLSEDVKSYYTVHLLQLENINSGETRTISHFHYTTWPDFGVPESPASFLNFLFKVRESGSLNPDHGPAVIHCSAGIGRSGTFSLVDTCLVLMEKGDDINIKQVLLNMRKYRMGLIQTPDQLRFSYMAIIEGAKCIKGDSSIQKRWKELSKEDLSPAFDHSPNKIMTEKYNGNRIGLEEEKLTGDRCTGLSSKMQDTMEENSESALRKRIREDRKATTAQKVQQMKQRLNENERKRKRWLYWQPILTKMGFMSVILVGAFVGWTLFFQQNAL

| IC50 (TC-PTP) | IC50 (PTP1B) | selectivity for TC-PTP over PTP1B (TC-PTP; TC-PTP versus PTP1B) | fold lower TC-PTP IC50 than parent compound 4 (TC-PTP; relative to compound 4) | Structure (SMILES) | change in selectivity against PTP1B relative to 6 (TC-PTP; relative to compound 6) | fold increase in affinity for TC-PTP relative to 6 (TC-PTP; relative to compound 6) |
| --- | --- | --- | --- | --- | --- | --- |
| 2000 nM | 2000 nM |  |  | CC(=O)NCCCCC(NC(=O)C(Cc1ccc(C(F)(F)P(=O)(O)O)cc1)NC(C)=O)C(N)=O (stereo not shown) [Compound 4] (Ac-[F2Pmp]-Lys(Ac)-NH2; configuration not given here) |  |  |
| 160 ± 20 nM | 700 ± 20 nM | 4.4 fold | 12.5 fold | CCc1ccc(C(=O)NCCCCC(NC(=O)C(Cc2ccc(C(F)(F)P(=O)(O)O)cc2)NC(C)=O)C(N)=O)cc1 (stereo not shown) [Compound 6] |  |  |

| Structure (SMILES) | IC50 (TC-PTP) | IC50 (PTP1B) | selectivity for TC-PTP over PTP1B (TC-PTP; TC-PTP versus PTP1B) | fold lower TC-PTP IC50 than parent compound 4 (TC-PTP; relative to compound 4) | change in selectivity against PTP1B relative to 6 (TC-PTP; relative to compound 6) | fold increase in affinity for TC-PTP relative to 6 (TC-PTP; relative to compound 6) |
| --- | --- | --- | --- | --- | --- | --- |
| CCc1ccc(C(=O)NCCCCC(NC(=O)C(Cc2ccc(C(F)(F)P(=O)(O)O)cc2)NC(=O)C(Cc2ccccc2)NC(C)=O)C(N)=O)cc1 (stereo not shown) [Compound 8] | 26 ± 2 nM | 87 ± 2 nM |  |  | no appreciable change | 6.2 fold |

Source: patent US9217012B2, “Inhibitors of protein tyrosine phosphatases” (Indiana University Research and Technology Corporation, priority 2009, dated 2015)
